Measured values from patent US5616615A, “Enaminone esters” (priority 1995, dated 1997).
Where two headings read alike, the source gives them in different places.

What was measured:
[1] = test system: Maximal electroshock seizures; test: MES maximal electroshock seizure test, mice ip; assay type: in vivo; parameters: TPE (time of peak effect), activity: unit not given here
Experimental: Three tests were performed:
1. MES--Electroshock Seizure Test
(§1) Maximal electroshock seizures are elicited with a 60-cycle alternating current of 50 mA intensity (5-7 times that necessary to elicit minimal electroshock seizures) delivered via corneal electrodes for 0.2 seconds. A drop of 0.9% saline is instilled in the eye prior to application of the electrodes in order to […].

[2] = test system: Subcutaneous Pentylenetetrazol seizure; test: sc Met subcutaneous pentylenetetrazol (Metrazol) seizure test, mice; assay type: in vivo; settings: for responders at 300 mg/kg / responders at 100 mg/kg: Mus musculus, sc
Experimental: 2. sc Met--Subcutaneous Pentylenetetrazol (Metrazol^R) Seizure Test
The animal is observed for 30 minutes. Failure to observe even a threshold seizure (a single episode of clonic spasms of at least 5 seconds duration) is defined as protection and the results are expressed as the number of animals protected/the number of animals tested.

in vivo [3] = test: in vivo
Experimental: (§2) The first phase of the ADD Program involved performing tests on male Carworth Farms #1 mice. […] Three tests were performed:
In the second phase of the ADD program protocol, estimates of anticonvulsant activity and neurotoxicity are quantified. The median effective dose (ED50) in the MES, sc Met, and rotorod test is determined. In the case of a compound with apparent activity in only one anticonvulsant test, testing is carried out in the other up to, and in some cases beyond, doses which produce neurological deficit. Compounds which fail to produce minimal neurological deficit are tested whenever possible to doses ten times their lowest anticonvulsant ED50. […] The rotorod ED50 is determined at the time of the peak neurologic deficit.

seizures = test: Anticonvulsant evaluation (ASP phase I / overall); assay type: in vivo, mice; settings: Mus musculus, ip, read-out: ASP Classification
Experimental: as §2, §1
The animal is observed for 30 minutes.

[4] = test system: Maximal electroshock seizures; test: Phase VI oral MES test, rats; assay type: in vivo; settings: for responders at 50 mg/kg: Rattus norvegicus
From the text: as §1
(§3) This oral screen is designated as phase VI.

in vivo [5] = settings: rat, po, 50 mg/kg
From the text: as §3

[6] = Mus musculus, ip, 0.5 h, 300 mg/kg, 30 min, read-out: MES, animals protected/tested
[7] = Mus musculus, ip, 2 h, Phase II, 100 mg/kg, 2.00 h, read-out: MES, animals protected/tested (converted)
[8] = Mus musculus, ip, 3 h, Phase II, 100 mg/kg, 3.00 h, read-out: MES, animals protected/tested (converted)
[9] = Mus musculus, ip, 4 h, 300 mg/kg, 4 h, read-out: MES, animals protected/tested
[10] = 0.5 h, 300 mg/kg, 30 min, read-out: scMet, animals protected/tested (converted)
[11] = 4 h, 300 mg/kg, 4 h, read-out: scMet, animals protected/tested (converted)
[12] = Mus musculus, ip, 0.5 h, 100 mg/kg, 30 min, read-out: MES, animals protected/tested (converted)
[13] = Mus musculus, ip, 0.5 h, Phase II, 0.50 h, read-out: MES, animals protected/tested
[14] = Mus musculus, ip, 0.5 h, Phase II, 0.50 h, read-out: MES, animals protected/tested (converted)
[15] = Mus musculus, ip, 4 h, 100 mg/kg, 4 h, read-out: MES, animals protected/tested (converted)
[16] = 0.5 h, 100 mg/kg, 30 min, read-out: scMet, animals protected/tested (converted)
[17] = 4 h, 100 mg/kg, 4 h, read-out: scMet, animals protected/tested (converted)
[18] = 0.5 h, oral, 50 mg/kg, 0.50 h, read-out: MES, animals protected/tested (converted)
[19] = oral, 50 mg/kg, 0.25 h, read-out: MES, animals protected/tested (converted)
[20] = oral, 50 mg/kg, 1.00 h, read-out: MES, animals protected/tested (converted)
[21] = oral, 50 mg/kg, 2.00 h, read-out: MES, animals protected/tested (converted)
[22] = Mus musculus, ip, 0.5 h, read-out: MES, animals protected/tested
[23] = Mus musculus, ip, 4 h, read-out: MES, animals protected/tested
[24] = 0.5 h, read-out: scMet, animals protected/tested
[25] = 4 h, read-out: scMet, animals protected/tested
[26] = oral, 50 mg/kg, 4.00 h, read-out: MES, animals protected/tested (converted)

Row | SMILES | responders at 300 mg/kg [1, 6] [%] | responders at 300 mg/kg [1, 9] [%] | responders at 300 mg/kg [2, 10] [%] | responders at 300 mg/kg [2, 11] [%] | Tox (rotorod), animals toxic/tested (in vivo [3]; mouse, in vivo, 100 mg/kg) | minimal effective dose (seizures; Phase I) [mg/kg] | responders at 100 mg/kg [1, 12] [%] | responders at 100 mg/kg [1, 15] [%] | responders at 100 mg/kg [2, 16] [%] | responders at 100 mg/kg [2, 17] [%] | responders at 50 mg/kg [4, 18] [%] | responders at 50 mg/kg [4, 19] [%] | responders at 50 mg/kg [4, 20] [%] | responders at 50 mg/kg [4, 21] [%] | Tox, animals toxic/tested (in vivo [5]) | further results
1 | COC(=O)C1C(=O)C=C(Nc2ccc([N+](=O)[O-])cc2)CC1(C)C (centres unmarked) [Compound 118] | 0 | 100 | 0 | 0 | 0/2 | > 100 | – | – | – | – | – | – | – | – | – | responders at 100 mg/kg [1, 7]: 0%; responders at 100 mg/kg [1, 8]: 0%
2 | COC(=O)C1C(=O)C=C(Nc2ccc(C(F)(F)F)cc2)CC1(C)C (centres unmarked) [Compound 121] | 100 | 100 | 0 | 0 | – | < 100 | 100 | 100 | 0 | 0 | 75 | 75 | 100 | 100 | 0/4 | responders at 3 mg/kg [1, 13]: 0%; responders at 10 mg/kg [1, 14]: 0%; Tox (rotorod), animals toxic/tested (in vivo [3]; mouse, in vivo, 3 mg/kg): 0/4; Tox (rotorod), animals toxic/tested (in vivo [3]; mouse, in vivo, 10 mg/kg): 0/4
3 | CCOC(=O)C1C(=O)C=C(Nc2ccc(Cl)cc2)CC1C (centres unmarked) [Compound 122] | 100 | 100 | 100 | 0 | – | < 100 | 100 | 0 | 0 | 0 | 100 | 75 | 75 | 100 | 0/4 | responders at 10 mg/kg ([1]; Mus musculus, ip, 0.25 h, mice ip, 0.25 h, read-out: MES, animals protected/tested (converted)): 75%; responders at 3 mg/kg [1, 13]: 0%; responders at 10 mg/kg [1, 14]: 25%; responders at 10 mg/kg ([1]; Mus musculus, ip, 0.5 h, mice ip, 0.50 h, read-out: MES, animals protected/tested (converted)): 75%; responders at 10 mg/kg ([1]; Mus musculus, ip, 1 h, mice ip, 1.00 h, read-out: MES, animals protected/tested (converted)): 100%; responders at 10 mg/kg ([1]; Mus musculus, ip, 2 h, mice ip, 2.00 h, read-out: MES, animals protected/tested (converted)): 25%; responders at 10 mg/kg ([1]; Mus musculus, ip, 4 h, mice ip, 4.00 h, read-out: MES, animals protected/tested (converted)): 25%; anti-MES protecting ability ([1]; Phase I): showed anti-MES protecting ability; responders at 300 mg/kg ([2]; 0.5 h, 300 mg/kg, 30 min, second trial, read-out: scMet, animals protected/tested (converted)): 50%; Tox (rotorod), animals toxic/tested (in vivo [3]; mouse, in vivo, 3 mg/kg): 0/4; Tox (rotorod), animals toxic/tested (in vivo [3]; mouse, in vivo, 10 mg/kg): 0/4
4 | CCOC(=O)C1C(=O)C=C(Nc2cc(OC)ccc2OC)CC1C (centres unmarked) [Compound 128] | 100 | 0 | 0 | 0 | 0/2 | > 100 | – | – | – | – | – | – | – | – | – | responders at 100 mg/kg ([1]; Mus musculus, ip, 0.25 h, Phase II, 100 mg/kg, 0.25 h, read-out: MES, animals protected/tested (converted)): 0%; responders at 100 mg/kg ([1]; Mus musculus, ip, 1 h, Phase II, 100 mg/kg, 1.00 h, read-out: MES, animals protected/tested (converted)): 0%
5 | CCc1ccc(NC2=CC(=O)CC(C)(C)C2)cc1 [Compound 140] | 0 | 100 | 0 | 0 | 0/2 | > 100 | – | – | – | – | – | – | – | – | – | responders at 100 mg/kg [1, 7]: 0%; responders at 100 mg/kg [1, 8]: 0%
6 | CC1(C)CC(=O)C=C(NCCc2ccccc2)C1 [Compound 145] | – | – | – | – | – | – | – | – | – | – | – | – | – | – | – | responders at 100 mg/kg ([1]; Mus musculus, ip, 0.25 h, read-out: MES, animals protected/tested): 0%; responders at 300 mg/kg [1, 22]: 100%; responders at 100 mg/kg ([1]; Mus musculus, ip, 1 h, read-out: MES, animals protected/tested): 0%; responders at 300 mg/kg [1, 23]: 0%; responders at 300 mg/kg [2, 24]: 0%; responders at 300 mg/kg [2, 25]: 0%; Tox, animals exhibiting toxicity/tested (in vivo [3]; 300 mg/kg, 30 min): 4/4; Tox, animals exhibiting toxicity/tested (in vivo [3]; 300 mg/kg, 4 h): 0/2; Tox (rotorod), animals toxic/tested (in vivo [3]; Phase II, 100 mg/kg, 0.25 h): 0/2; Tox (rotorod), animals toxic/tested (in vivo [3]; Phase II, 100 mg/kg, 1.00 h): 0/2; minimal effective dose (seizures): > 100 mg/kg
7 | O=C1C=C(NCCc2ccccc2)CCC1 [Compound 149] | – | – | – | – | – | – | – | – | – | – | – | – | – | – | – | responders at 100 mg/kg [1, 22]: 100%; responders at 300 mg/kg [1, 22]: 100%; responders at 100 mg/kg [1, 23]: 0%; responders at 300 mg/kg [1, 23]: 0%; responders at 100 mg/kg [2, 24]: 0%; responders at 100 mg/kg [2, 25]: 0%; responders at 300 mg/kg [2, 25]: 0%; Tox, animals exhibiting toxicity/tested (in vivo [3]; 100 mg/kg, 30 min): 4/8; Tox, animals exhibiting toxicity/tested (in vivo [3]; 100 mg/kg, 4 h): 0/4; Tox, animals exhibiting toxicity/tested (in vivo [3]; 300 mg/kg, 4 h): 1/2; responders at 50 mg/kg ([4]; po, 0.25 h, read-out: MES, animals protected/tested): 100%; responders at 50 mg/kg ([4]; po, 0.5 h, read-out: MES, animals protected/tested): 100%; responders at 50 mg/kg ([4]; po, 1 h, read-out: MES, animals protected/tested): 75%; responders at 50 mg/kg ([4]; po, 2 h, read-out: MES, animals protected/tested): 25%; responders at 50 mg/kg ([4]; po, 4 h, read-out: MES, animals protected/tested): 25%; minimal effective dose (seizures): < 100 mg/kg
8 | O=C1C=C(Nc2ccc(C(F)(F)F)cc2)CCC1 [Compound 151] | 100 | 100 | 0 | 0 | – | < 100 | 100 | 0 | 0 | 0 | 25 | 75 | 25 | 50 | 0/4 | responders at 50 mg/kg [4, 26]: 0%
9 | O=C1C=C(Nc2ccc(Cl)cc2)CC1 [Compound 152, 3-(4'-Chlorophenyl)amino-2-cyclopentenone] | 100 | 0 | 0 | 0 | – | < 100 | 33.3 | 0 | 0 | 0 | 25 | 0 | 25 | 75 | 0/4 | responders at 50 mg/kg [4, 26]: 50%
10 | O=C1C=C(NCCc2ccccc2)CCC1 [Compound 154] | – | – | – | – | 0/2 | – | – | – | – | – | – | – | – | – | 0/4 | MES, animals protected/tested ([1]; 300 mg/kg, 30 min): 1/1; MES, animals protected/tested ([1]; 300 mg/kg, 4 h): 0/1; MES, animals protected/tested ([1]; Phase II, 100 mg/kg, 0.25 h): 2/2; MES, animals protected/tested ([1]; Phase II, 100 mg/kg, 1.00 h): 0/2; scMet, animals protected/tested ([2]; 300 mg/kg, 30 min): 0/1; scMet, animals protected/tested ([2]; 300 mg/kg, 4 h): 0/1; MES, animals protected/tested ([4]; oral, 50 mg/kg, 0.25 h): 0/4; MES, animals protected/tested ([4]; oral, 50 mg/kg, 0.50 h): 0/4; MES, animals protected/tested ([4]; oral, 50 mg/kg, 1.00 h): 0/4; MES, animals protected/tested ([4]; oral, 50 mg/kg, 2.00 h): 0/4; MES, animals protected/tested ([4]; oral, 50 mg/kg, 4.00 h): 0/4
11 | CCCC(CCC)C(=O)O [valproate, reference compound] | – | – | – | – | – | – | – | – | – | – | – | – | – | – | – | ED50 ([1]; Mus musculus, Phase II, ip, time of peak effect): 665 mg/kg; TPE (time of peak effect), activity ([1]; Phase II, ip): 1; TPE (time of peak effect), toxicity (in vivo [3]; Phase II, ip, commercial products, onset of ataxia): 2
